Columns and labels:
human liver microsomes = test: In vitro glucuronidation of lysophosphatidic acids by human liver microsomes; format: in vitro ADME; settings: for Glucuronidation by human liver microsomes (in words): FIG. 9A
Description: (§1) Reactions with substrates were run in duplicates.
(§2) Lysophosphatidic acid (LPA) stimulates lysophosphatidic acid receptors which in turn activate PKC and Ras-MAPK signalling pathways. Lysophosphatidic acid is a lipid second messenger involved in progression of malignant ovarian cancer. Cellular effects of lysophosphatidic acid accumulation include stimulation of cell proliferation, inhibition of apoptosis and increased invasiveness of cancer cells. It was hypothesized that anti-proliferative activity of UDP-glucuronosyltransferase 2B7 in the ovarian cancer cell model described above may be associated with inactivation of lysophosphatidic acid through glucuronidation. Thus, in vitro glucuronidation experiments on three different lysophosphatidic acid compounds (FIG. 10) was conducted using human liver microsomes and a recombinant UDP-glucuronosyltransferase 2B7 expressed in HK293 cells.

[1] = target: T1, recombinant UDP-glucuronosyltransferase 2B7 (Homo sapiens, UniProt P16662); test: In vitro glucuronidation of lysophosphatidic acids by recombinant UGT2B7 expressed in HK293 cells; format: in vitro ADME; settings: for Glucuronidation by UGT2B7 (in words): recombinant UGT2B7, FIG. 9A
T1 construct: made in house
T1 sequence (P16662 24-529): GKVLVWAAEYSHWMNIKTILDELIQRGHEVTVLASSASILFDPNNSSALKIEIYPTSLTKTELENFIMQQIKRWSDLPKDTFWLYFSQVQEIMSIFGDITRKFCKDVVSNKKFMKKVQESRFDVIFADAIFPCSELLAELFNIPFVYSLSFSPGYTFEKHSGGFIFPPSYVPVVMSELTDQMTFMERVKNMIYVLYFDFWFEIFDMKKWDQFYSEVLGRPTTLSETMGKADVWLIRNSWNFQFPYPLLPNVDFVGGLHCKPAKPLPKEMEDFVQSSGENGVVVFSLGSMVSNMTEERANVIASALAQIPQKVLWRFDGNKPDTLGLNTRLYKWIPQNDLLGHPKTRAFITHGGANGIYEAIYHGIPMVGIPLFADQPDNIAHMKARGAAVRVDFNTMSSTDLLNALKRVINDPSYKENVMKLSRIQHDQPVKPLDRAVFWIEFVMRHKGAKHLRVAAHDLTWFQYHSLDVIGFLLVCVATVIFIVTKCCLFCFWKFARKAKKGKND
Description: as §1, §2

Row | Structure (SMILES) | Glucuronidation by human liver microsomes (in words) (human liver microsomes) | Glucuronidation by UGT2B7 (in words) [1] | Specific activity of glucuronidation (human liver microsomes) [pmol/min/mg] | Specific activity of glucuronidation ([1]; recombinant UGT2B7 expressed in HK293 cells) [pmol/min/mg]
1 | CCCCCCCCCCCCCCCCCC(=O)OC[C@@H](O)COP(=O)(O)O [stearoyl-lysophosphatidic acid] | same activity profile | not |  | 
2 | CCCCCCCCCCCCCCCC(=O)OC[C@@H](O)COP(=O)(O)O [palmitoyl-lysophosphatidic acid] | same activity profile | not |  | 
3 | CCCCCCCC/C=C\CCCCCCCC(=O)OCC(O)COP(=O)(O)O (centres unmarked) [oleoyl-lysophosphatidic acid] | same activity profile | actively glucuronidated | 560 | 250

— patent US7097992B2, “Uses of human UDP-glucuronosyltransferase 2B7 to detect and treat cancer” (priority 2001, dated 2006)
